Measurements: US11267825B2 (AICURIS GMBH & CO. KG, priority 2017, dated 2022)
Where two headings read alike, the source gives them in different places.

Columns and labels:
[1] = target: HBV core protein (UniProt P03146); assay type: biochemical; details: read-out: Assembly Activity (IC50); BODIPY-FL labelled core protein, assembly started with NaCl, read after 6 min
Method in brief: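 Compounds tested at 8 concentrations in 0.5-log steps from 100, 31.6 or 10 μM against 1.0–2.0 μM BODIPY-FL-labelled Cys150 core dimers (residues 1–149), 50 mM HEPES pH 7.5. NaCl ([…] final) triggered assembly; quenching read at 6 min, 477/525 nm, with 2.5 M and 0 M NaCl as controls; EC50 by nonlinear fit.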

[2] = test system: HBV; assay: Determination of HBV DNA from the supernatants of HepAD38 cells (anti-HBV activity); assay type: cell-based, hepatitis B virus; details: Hepatitis B virus, read-out: Cell Activity (EC50)
Method in brief: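 EC50 values were obtained by non-linear regression of HBV DNA copy numbers measured by qPCR against pCH-9/3091 plasmid standards. The DNA came from filtered supernatants collected on day 6. Before that, tetracycline-withdrawn HepAD38 cells had been exposed to serial half-log compound dilutions, with tetracycline-treated cells as the non-producing control.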

[3] = 144 h, HBV DNA in HepAD38 supernatant at day 6

HBV core protein, sequence (P03146 whole entry, looked up, the tested form may be a part): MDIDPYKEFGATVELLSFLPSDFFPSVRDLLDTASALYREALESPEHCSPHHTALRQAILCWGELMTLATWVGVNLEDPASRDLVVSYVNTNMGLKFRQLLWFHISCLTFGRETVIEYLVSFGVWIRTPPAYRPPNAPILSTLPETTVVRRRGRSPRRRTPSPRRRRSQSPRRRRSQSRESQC

| Structure (SMILES) | IC50 [1] [µM] | EC50 [2, 3] [µM] | EC50 ([2]; HePAD38, 144 h) [µM] |
| --- | --- | --- | --- |
| Cc1cccc2[nH]c(C(=O)N3CCc4nc(NCC5(CO)CC5)sc4C3)cc12 [Example 64, [1-({[5-(4-methyl-1H-indole-2-carbonyl)-4H,5H,6H,7H-[1,3]thiazolo[5,4-c]pyridin-2-yl]amino}methyl)cyclopropyl]methanol] | < 5 | < 1 |  |
| O=C(c1cc2ccccc2[nH]1)N1CCc2nc(NCC3COCCO3)sc2C1 (stereo not drawn) [Example 66, N-[(1,4-dioxan-2-yl)methyl]-5-(1H-indole-2-carbonyl)-4H,5H,6H,7H-[1,3]thiazolo[5,4-c]pyridin-2-amine] | < 5 | < 1 |  |
| O=C(c1cc2ccccc2[nH]1)N1CCc2nc(NC3CCC(O)CC3)sc2C1 (stereo not drawn) [Example 67, 4-{[5-(1H-indole-2-carbonyl)-4H,5H,6H,7H-[1,3]thiazolo[5,4-c]pyridin-2-yl]amino}cyclohexan-1-ol] | < 5 | < 1 |  |
| CC(C)(CO)Nc1nc2c(s1)CN(C(=O)c1cc3ccccc3[nH]1)CC2 [Example 68, 2-{[5-(1H-indole-2-carbonyl)-4H,5H,6H,7H-[1,3]thiazolo[5,4-c]pyridin-2-yl]amino}-2-methylpropan-1-ol] | < 5 | < 1 |  |
| CC1(Nc2nc3c(s2)CN(C(=O)c2cc4ccccc4[nH]2)CC3)CCOCC1 [Example 69, 5-(1H-indole-2-carbonyl)-N-(4-methyloxan-4-yl)-4H,5H,6H,7H-[1,3]thiazolo[5,4-c]pyridin-2-amine] | < 5 | < 1 |  |
| COCC(C)Nc1nc2c(s1)CN(C(=O)c1cc3ccccc3[nH]1)CC2 (stereo not drawn) [Example 70, 5-(1H-indole-2-carbonyl)-N-(1-methoxypropan-2-yl)-4H,5H,6H,7H-[1,3]thiazolo[5,4-c]pyridin-2-amine] | < 5 | < 1 |  |
| CC(C)(C)Nc1nc2c(s1)CN(C(=O)c1cc3ccccc3[nH]1)CC2 [Example 71, N-tert-butyl-5-(1H-indole-2-carbonyl)-4H,5H,6H,7H-[1,3]thiazolo[5,4-c]pyridin-2-amine] | < 5 | < 1 |  |
| O=C(c1cc2ccccc2[nH]1)N1CCc2nc(NCC3CCCO3)sc2C1 (stereo not drawn) [Example 72, 5-(1H-indole-2-carbonyl)-N-[(oxolan-2-yl)methyl]-4H,5H,6H,7H-[1,3]thiazolo[5,4-c]pyridin-2-amine] | < 5 | < 1 |  |
| O=C(c1cc2ccccc2[nH]1)N1CCc2nc(NCCCN3CCOCC3)sc2C1 [Example 73, 5-(1H-indole-2-carbonyl)-N-[3-(morpholin-4-yl)propyl]-4H,5H,6H,7H-[1,3]thiazolo[5,4-c]pyridin-2-amine] | < 5 | < 1 |  |
| O=C(c1cc2ccccc2[nH]1)N1CCc2nc(CNCc3ccccc3)sc2C1 [Example 74, Benzyl({[5-(1H-indole-2-carbonyl)-4H,5H,6H,7H-[1,3]thiazolo[5,4-c]pyridin-2-yl]methyl})amine] | < 100 | 1 to 10 |  |
| O=C(c1cc2c(F)cc(F)cc2[nH]1)N1CCc2nc(NCC3(CO)CC3)sc2C1 [Example 75, [1-({[5-(4,6-difluoro-1H-indole-2-carbonyl)-4H,5H,6H,7H-[1,3]thiazolo[5,4-c]pyridin-2-yl]amino}methyl)cyclopropyl]methanol] | < 5 | < 1 |  |
| Cc1cccc2[nH]c(C(=O)N3CCc4nc(NC5CCOC5)sc4C3)cc12 (stereo not drawn) [Example 76, 5-(4-methyl-1H-indole-2-carbonyl)-N-(oxolan-3-yl)-4H,5H,6H,7H-[1,3]thiazolo[5,4-c]pyridin-2-amine] | < 5 | < 1 |  |
| N#Cc1cc(F)cc2[nH]c(C(=O)N3CCc4nc(N)sc4C3)cc12 [Example 77, 2-{2-amino-4H,5H,6H,7H-[1,3]thiazolo[5,4-c]pyridine-5-carbonyl}-6-fluoro-1H-indole-4-carbonitrile] | < 5 | < 1 |  |
| Nc1nc2c(s1)CN(C(=O)c1cc3c(F)c(F)c(F)cc3[nH]1)CC2 [Example 78, 5-(4,5,6-trifluoro-1H-indole-2-carbonyl)-4H,5H,6H,7H-[1,3]thiazolo[5,4-c]pyridin-2-amine] | < 5 | < 1 |  |
| N#Cc1ccc(F)c2[nH]c(C(=O)N3CCc4nc(N)sc4C3)cc12 [Example 79, 2-{2-amino-4H,5H,6H,7H-[1,3]thiazolo[5,4-c]pyridine-5-carbonyl}-7-fluoro-1H-indole-4-carbonitrile] | < 100 | 1 to 10 |  |
| Nc1nc2c(s1)CN(C(=O)c1cc3c(Cl)c(F)ccc3[nH]1)CC2 [Example 80, 5-(4-chloro-5-fluoro-1H-indole-2-carbonyl)-4H,5H,6H,7H-[1,3]thiazolo[5,4-c]pyridin-2-amine] | < 5 | < 1 |  |
| CCc1cccc2[nH]c(C(=O)N3CCc4nc(N)sc4C3)cc12 [Example 81, 5-(4-ethyl-1H-indole-2-carbonyl)-4H,5H,6H,7H-[1,3]thiazolo[5,4-c]pyridin-2-amine] | < 5 | < 1 |  |

| Structure (SMILES) | IC50 [1] [µM] | EC50 [2, 3] [µM] | EC50 ([2]; HePAD38, 144 h) [µM] |
| --- | --- | --- | --- |
| Nc1nc2c(s1)CN(C(=O)c1cc3c(C4CC4)cccc3[nH]1)CC2 [Example 82, 5-(4-cyclopropyl-1H-indole-2-carbonyl)-4H,5H,6H,7H-[1,3]thiazolo[5,4-c]pyridin-2-amine] | 5 to 10 | 1 to 10 |  |
| N#Cc1cccc2[nH]c(C(=O)N3CCc4nc(N)sc4C3)cc12 [Example 83, 5-(4-cyano-1H-indole-2-carbonyl)-4H,5H,6H,7H-[1,3]thiazolo[5,4-c]pyridin-2-amine] | < 5 | 1 to 10 |  |
| Nc1nc2c(s1)CN(C(=O)c1cc3c(F)cc(F)c(F)c3[nH]1)CC2 [Example 84, 5-(4,6,7-trifluoro-1H-indole-2-carbonyl)-4H,5H,6H,7H-[1,3]thiazolo[5,4-c]pyridin-2-amine] | < 5 | < 1 |  |
| Nc1nc2c(s1)CN(C(=O)c1cc3c(Cl)ccc(F)c3[nH]1)CC2 [Example 85, 5-(4-chloro-7-fluoro-1H-indole-2-carbonyl)-4H,5H,6H,7H-[1,3]thiazolo[5,4-c]pyridin-2-amine] | < 5 | < 1 |  |
| Cc1ccc(F)c2[nH]c(C(=O)N3CCc4nc(N)sc4C3)cc12 [Example 86, 5-(7-fluoro-4-methyl-1H-indole-2-carbonyl)-4H,5H,6H,7H-[1,3]thiazolo[5,4-c]pyridin-2-amine] | < 5 | < 1 |  |
| O=C(c1cc2ccccc2[nH]1)N1CCc2nc(NCC3(CO)CC3)sc2C1 [Example 87, [1-({[5-(1H-indole-2-carbonyl)-4H,5H,6H,7H-[1,3]thiazolo[5,4-c]pyridin-2-yl]amino}methyl)cyclopropyl]methanol] | < 5 | < 1 |  |
| Cc1cccc2[nH]c(C(=O)N3CCc4nc(N(C)C)sc4C3)cc12 [Example 88, N,N-dimethyl-5-(4-methyl-1H-indole-2-carbonyl)-4H,5H,6H,7H-[1,3]thiazolo[5,4-c]pyridin-2-amine] | < 100 | 1 to 10 |  |
| CS(=O)(=O)CCNc1nc2c(s1)CN(C(=O)c1cc3ccccc3[nH]1)CC2 [Example 89, 5-(1H-indole-2-carbonyl)-N-(2-methanesulfonylethyl)-4H,5H,6H,7H-[1,3]thiazolo[5,4-c]pyridin-2-amine] | < 5 | < 1 |  |
| Nc1nc2c(s1)CN(C(=O)c1cc3c(Br)ccc(F)c3[nH]1)CC2 [Example 90, 5-(4-bromo-7-fluoro-1H-indole-2-carbonyl)-4H,5H,6H,7H-[1,3]thiazolo[5,4-c]pyridin-2-amine] | < 5 | < 1 |  |
| O=C(c1cc2ccccc2[nH]1)N1CCc2nc(NCC3CCOC3)sc2C1 (stereo not drawn) [Example 91, 5-(1H-indole-2-carbonyl)-N-[(oxolan-3-yl)methyl]-4H,5H,6H,7H-[1,3]thiazolo[5,4-c]pyridin-2-amine] | < 5 |  | < 1 |
| Nc1nc2c(s1)CN(C(=O)c1cc3ccc(Br)cc3[nH]1)CC2 [Example 92, 5-(6-bromo-1H-indole-2-carbonyl)-4H,5H,6H,7H-[1,3]thiazolo[5,4-c]pyridin-2-amine] | < 5 | < 1 |  |
| Nc1nc2c(s1)CN(C(=O)c1cc3c(Br)ccc(O)c3[nH]1)CC2 [Example 93, 2-{2-amino-4H,5H,6H,7H-[1,3]thiazolo[5,4-c]pyridine-5-carbonyl}-4-bromo-1H-indol-7-ol] | < 100 | < 100 |  |
| CC(C)(O)CNc1nc2c(s1)CN(C(=O)c1cc3ccccc3[nH]1)CC2 [Example 95, 1-{[5-(1H-indole-2-carbonyl)-4H,5H,6H,7H-[1,3]thiazolo[5,4-c]pyridin-2-yl]amino}-2-methylpropan-2-ol] | < 5 | < 1 |  |
| O=C(c1cc2ccccc2[nH]1)N1CCc2nc(NCC3CC3)sc2C1 [Example 96, N-(cyclopropylmethyl)-5-(1H-indole-2-carbonyl)-4H,5H,6H,7H-[1,3]thiazolo[5,4-c]pyridin-2-amine] | < 5 | < 1 |  |
| COCCNc1nc2c(s1)CN(C(=O)c1cc3ccccc3[nH]1)CC2 [Example 97, 5-(1H-indole-2-carbonyl)-N-(2-methoxyethyl)-4H,5H,6H,7H-[1,3]thiazolo[5,4-c]pyridin-2-amine] | < 5 | < 1 |  |
| Nc1nc2c(s1)CN(C(=O)c1cc3cccc(O)c3[nH]1)CC2 [Example 98, 2-{2-amino-4H,5H,6H,7H-[1,3]thiazolo[5,4-c]pyridine-5-carbonyl}-1H-indol-7-ol] | < 100 | < 100 |  |
